# Experimental data from the supplement of paper PMC10307832.
# How the values were obtained:
# Assay in all cases: relative viability (nuclei count vs DMSO), 5 days (fraction); higher = more cells survive
# AZD6482 + Lapatinib = compound: Cc1cc([C@@H](C)Nc2ccccc2C(=O)O)c2nc(N3CCOCC3)cc(=O)n2c1 [AZD6482] + CS(=O)(=O)CCNCc1ccc(-c2ccc3ncnc(Nc4ccc(OCc5cccc(F)c5)c(Cl)c4)c3c2)o1 [Lapatinib] (partner 2 µM)
# Procedure, shortened: (§1)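 A single step with final 0.05% Triton X-100, 1% formaldehyde and 1 ug/ml Hoechst fixed the cells and stained nuclei 5 days after treatment. Lung cancer cell lines in 1536-well plates had been treated by pin tool the day after seeding with one drug alone or a fixed anchor-drug dose plus five library-drug doses (not always all listed) in √10 steps, and nuclei were counted on 4× images. Relative viability is the ratio of nuclei in treated wells to nuclei in vehicle wells, taken as the median of duplicate plates.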
# AZD6482 + AZD7762 = compound: Cc1cc([C@@H](C)Nc2ccccc2C(=O)O)c2nc(N3CCOCC3)cc(=O)n2c1 [AZD6482] + NC(=O)Nc1cc(-c2cccc(F)c2)sc1C(=O)N[C@H]1CCCNC1 [AZD7762] (partner 0.2 µM)
# Procedure, shortened: as §1
# [1] = compound: COc1cc2nc(N3CCCN(C)CC3)nc(NC3CCN(Cc4ccccc4)CC3)c2cc1OC + COc1cccc2cc(-c3nc([C@H]4CC[C@H](C(=O)O)CC4)n4ncnc(N)c34)[nH]c12 [OSI-027] (partner 0.5 µM)
# Procedure, shortened: as §1
# AZD6482 + Luminespib = compound: Cc1cc([C@@H](C)Nc2ccccc2C(=O)O)c2nc(N3CCOCC3)cc(=O)n2c1 [AZD6482] + CCNC(=O)c1noc(-c2cc(C(C)C)c(O)cc2O)c1-c1ccc(CN2CCOCC2)cc1 [Luminespib] (partner 0.01 µM)
# Procedure, shortened: as §1
Cell Line,relative viability (AZD6482 + Lapatinib; first compound 0.08 µM),relative viability (AZD6482 + Lapatinib; first compound 0.253 µM),relative viability (AZD6482 + Lapatinib; first compound 0.8 µM),relative viability (AZD6482 + Lapatinib; first compound 2.53 µM),relative viability (AZD6482 + Lapatinib; first compound 8 µM),relative viability (AZD6482 + AZD7762; first compound 0.08 µM),relative viability (AZD6482 + AZD7762; first compound 0.253 µM),relative viability (AZD6482 + AZD7762; first compound 0.8 µM),relative viability (AZD6482 + AZD7762; first compound 2.53 µM),relative viability (AZD6482 + AZD7762; first compound 8 µM),relative viability ([1]; first compound 0.2 µM),relative viability ([1]; first compound 0.6325 µM),relative viability ([1]; first compound 2 µM),relative viability ([1]; first compound 6.325 µM),relative viability (AZD6482 + Luminespib; first compound 0.08 µM),relative viability (AZD6482 + Luminespib; first compound 0.253 µM),relative viability (AZD6482 + Luminespib; first compound 0.8 µM),relative viability (AZD6482 + Luminespib; first compound 2.53 µM),relative viability (AZD6482 + Luminespib; first compound 8 µM)
NCI-H1651,0.776,0.608,0.77,0.563,0.522,0.457,0.379,0.456,0.391,0.379,0.706,0.686,0.729,0.714,0.779,0.805,0.773,0.812,0.753
NCI-H1666,0.283,0.616,0.556,0.517,0.417,0.79,0.776,0.958,0.835,0.767,0.816,0.877,0.757,0.859,1,0.942,1.06,0.876,1.21
NCI-H1734,0.933,1.02,1.16,0.632,0.612,0.533,0.504,0.556,0.303,0.367,0.587,0.583,0.506,0.501,0.194,0.167,0.164,0.163,0.205
NCI-H1755,0.955,0.969,1.03,0.704,0.749,0.463,0.417,0.453,0.344,0.311,0.791,0.663,0.671,0.518,0.24,0.488,0.411,0.322,0.218
NCI-H1792,0.814,0.815,0.879,0.628,0.598,0.516,0.577,0.427,0.262,0.322,0.836,0.816,0.682,0.784,0.373,0.392,0.458,0.19,0.353
NCI-H1793,0.559,0.368,0.565,–,0.321,0.377,0.361,0.315,0.218,0.249,0.241,0.365,0.225,0.293,0.151,0.164,0.165,0.134,0.167
NCI-H1915,0.933,0.813,1.05,0.844,1.01,0.672,0.538,0.669,0.631,0.639,0.584,0.619,0.684,0.637,0.697,0.698,0.824,0.696,0.778
NCI-H1944,0.85,0.863,0.926,0.527,0.564,0.57,0.522,0.499,0.381,0.417,0.428,0.465,0.307,0.398,0.775,0.621,0.858,0.546,0.589
NCI-H1975,0.727,0.802,0.814,0.626,0.581,0.621,0.631,0.676,0.477,0.363,0.785,0.693,0.744,0.776,0.171,0.272,0.17,0.162,0.224
NCI-H1993,0.779,0.791,–,–,0.784,0.454,0.734,0.717,0.427,0.55,0.534,0.57,0.529,0.553,0.509,0.711,0.737,0.571,0.616
NCI-H2085,0.42,0.407,0.457,0.366,0.372,0.522,0.372,0.41,0.289,0.341,0.742,0.788,0.72,0.584,0.36,0.194,0.22,0.22,0.346
NCI-H2087,1.22,1.12,1.43,0.864,0.98,1.35,1.35,1.46,0.887,1.09,0.469,0.428,0.547,0.452,0.183,0.161,0.213,–,0.16
NCI-H2126,0.635,0.644,0.636,0.519,0.49,1.02,0.849,1.02,0.795,0.762,0.769,0.794,0.693,0.662,0.933,0.836,0.841,0.373,0.68
NCI-H2170,0.245,0.249,0.303,0.248,0.295,0.806,0.788,0.785,0.615,0.566,0.802,0.711,0.695,0.682,0.712,0.508,0.697,0.485,0.521
NCI-H2347,–,0.946,0.988,0.653,0.763,0.502,0.464,0.332,0.32,0.373,0.461,0.304,0.452,0.472,0.329,0.231,0.583,0.27,0.281
NCI-H2405,0.69,–,1.12,0.627,0.483,0.563,0.658,0.697,0.388,0.374,0.717,0.677,0.671,0.66,0.367,–,0.612,0.261,0.385
NCI-H3122,0.965,0.993,1.03,0.893,1.11,0.956,0.987,1.05,0.696,0.777,0.935,0.877,0.992,0.729,0.094,0.0817,0.108,0.0814,0.0719
PC-3 [JPC-3],0.438,0.433,0.438,0.349,0.422,0.872,0.715,0.741,0.367,0.413,0.767,0.746,0.764,0.764,0.634,0.689,0.655,0.509,0.588
PC-14,0.257,0.234,0.255,0.196,0.219,0.417,0.302,0.324,0.26,0.194,0.758,0.734,0.733,0.0418,0.156,0.16,0.145,–,0.142
RERF-LC-KJ,0.752,0.836,0.705,0.791,0.67,0.867,0.893,–,0.812,0.838,0.527,0.586,0.573,0.383,1.16,1.29,1.27,0.978,0.987
